Entries after “also recorded” stand apart in the source; their conditions may differ. Structures can show the parent of a compound that is named as a salt.
What was measured:
in vivo = assay type: in vivo; settings: zebrafish, in vivo; mortality; embryos incubated 3 to 96 hpf; 5 logarithmic concentrations 0.1 µM to 1 mM; 1% DMSO
Excerpt: (§1) Several issues were considered when planning the experimental protocol. The main concern was that drug-induced mortality and/or developmental toxicity (teratogenicity) could mask possible organ-toxicities appearing later in development. […] This preliminary assay allowed for the identification of non-mortal/non-teratogenic concentrations—no observed effect concentration (NOEC)—to use in the following assays. The hypothesis is that NOEC could affect organ physiology (organ toxicity), while uncoupled from putative developmental toxicity side-effects affecting organ development or function. Another consideration was to start drug incubations at 96 hours post fertilization (hpf), when the analysed organs are close to or already developed (Figure 1B). The overall aim is to understand the drug impact on organ physiology and function rather than early embryogenesis. The third consideration was to organize the sequential organ evaluation during the experimental and drug incubation time.
(§2) 1% DMSO, which is the constant solvent concentration in all conditions, was used as the negative control.
(§3) Thus, 20 wild type (wt) zebrafish embryos per condition were incubated with tested compounds from 3 to 96 hpf. The test was performed in 5 logarithmic concentrations per drug (from 0.1 µM to 1 mM). Each larva was analysed for mortality, body deformity, edema, tail detachment, pigmentation, heart activity, heart edema, and motor activity. […] DMSO 1% was used as the negative control in all experiments.

zebrafish larvae heart = assay: ZeGlobalTox cardiotoxicity evaluation (heart video, ZeCardio software); assay type: in vivo, zebrafish (Danio rerio); settings: 100 hpf, 4 h after drug incubation at NOEC (haloperidol 10 µM)
Method: Four cardiac parameters were evaluated to assess whether a compound was cardiotoxic: heart rate (beats per minute, BPM), QTc prolongation, ejection fraction (EJF), and cardiac arrest. […] 1% DMSO was used as the negative control.
Cardiotoxicity evaluation was performed from 96 hpf, when the zebrafish heartbeat is already stabilised, so the analysis might not be altered by unstable beating. Zebrafish hearts were video-recorded at 4 h after drug incubation (100 hpf) and analysed using the ZeCardio® β software (Figure 3A).
After 4 h of drug incubation (100 hpf), zebrafish larvae were anesthetized by immersion in […] tricaine methanesulfonate (A4050, Sigma-Aldrich, Saint Louis, MO, USA)/E3 solution. […] The 1% DMSO treated embryos were used as negative cardiotoxic controls. Embryos were positioned in an agarose based mold to allow their appropriate orientation under the fluorescence stereo microscope (Olympus MVX10). Individual fluorescent hearts were recorded during 60 s each (Figure 6A). Videos were acquired with a high-speed recording camera (Hamamatsu C11440 ORCA-flash 2.8) and analysed with the ZeCardio® β software to extract different cardiac parameters—heart rate, cardiac arrest, QTc prolongation, and Ejection Fraction (EJF) (Figure 6B).
ZeCardio® β software, developed by ZeClinics and currently in β status, provides a graphical user interface (GUI) that facilitates the semi-automatic analysis of living heart videos. Interactive analysis of the different parameters functions as follows: The user draws a line along the heart axis, from ventricle to atrium, to initiate the calculation. […] All lines can be subjected to modification of their angles and lengths.
Heart beat frequency for each chamber is detected and frequencies are presented in the GUI as a mean. A plot distribution is used for assessing beat stability over time (Figure 6F). In the same fashion, chamber specific cardiac arrest is measured as the longest beating pause (Figure 6H). No beating chambers and/or incorrect bpm can be manually flagged when detected.
For calculation of the QTc interval (linearly corrected QT interval), the Framingham formula (QTc = QT + 0.154 (1 − RR)) was adjusted for zebrafish as QTc = QT + 0.154 (2.66 − RR). RR = 6.6 ms/measured bpm is applied (Figure 6G). Finally, the Ejection Fraction, calculated as the maximal dilatation (the diastolic diameter, DD) versus the maximal contraction (systolic diameter, SD) is measured in % as EF% = (DD − SD)/DD*100 (Figure 6G). Computed values for the described parameters were exported in .csv format (Figure 6H).

humans = settings: known toxicity in humans, ref TOXNET (HSDB), Side effects (EMBL), drugs.com, cited from earlier work; for Neurotoxicity (toxicity in humans): [22],[30],[31],[34],[35]; for Cardiotoxicity (toxicity in humans) / Hepatotoxicity (toxicity in humans): ema.europa; for Cardiotoxicity (toxicity in humans): [19],[20],[21]; for Hepatotoxicity (toxicity in humans): [24],[26],[27],[32],[33]
[1] = tested on: wild type zebrafish embryos; assay: in vivo; assay type: in vivo; settings: embryos incubated 3 to 96 hpf; 5 logarithmic concentrations 0.1 µM to 1 mM; 1% DMSO
Excerpt: as §1, §2, §3

zebrafish larvae liver = assay: ZeGlobalTox hepatotoxicity: Oil Red O staining (steatosis and yolk lipid accumulation); settings: 132 hpf; for Percentage of larvae presenting steatosis: 36 h drug incubation at NOEC (EtOH 2%, MPTP 100 µM), DMSO 24.44%
Method: In order to assess drugs producing steatosis and yolk lipid accumulation, and subsequent to the RFP filtered images being acquired, zebrafish larvae were stained with Oil Red O. Larvae and were sorted into steatosis positive or negative, yolk lipid accumulation, or both (see materials and methods).
For the ZeGlobalTox assay, fertilized Tg(cmlc2:GFP; fabp10:RFP; ela31:EGFP) zebrafish embryos were collected in E3 medium (5 mM NaCl, 0.17 mM KCl, 0.33 mM CaCl2, 0.33 mM, MgSO4) in Petri dishes. At 3, 24, and 48 hpf, dishes were observed and all not fertilized, abnormal, or coagulated eggs were discarded. At 96 hpf, 20 larvae per condition were incubated with the NOECs from the different drugs and allowed to develop until 132 hpf at 28.5 °C.
After 36 h of drug incubation (132 hpf), embryos are fixed in 4% paraformaldehyde (158127-500G, Sigma-Aldrich, Saint Louis, MO, USA) for 2–4 h at room temperature (RT) and then are 3× washed with PBS.
In order to detect the presence of steatosis and yolk lipid retention, zebrafish larvae were stained with Oil Red O (O0625-25G, Sigma-Aldrich, Saint Louis, MO, USA) as described in [77]. Briefly, the skin pigment from fixed larvae is removed by incubating with bleaching solution (for 10 mL: 6 mL H2O, 0.25 mL 20× SSC, 0.5 mL formamide, 3.3 mL H2O2) during 20 min at RT. Then, the larvae are 5× washed with PBS. Bleached embryos are first submerged in 85% Propylene glycol (PG) (134368-1L, Sigma-Aldrich, Saint Louis, MO, USA) for 10 min and then in 100% PG for another 10 min before staining them with Oil Red O 0.5% in 100% PG (overnight, at RT and with gentle rocking). Oil Red O stained embryos are washed in 100% PG for 30 min, 50 min in 85% PG, and 40 min in 85% PG with an equal volume of PBS. Finally, embryos are washed 1× with PBS before adding 80% glycerol (G7757-500ML, Sigma-Aldrich, Saint Louis, MO, USA). Bright field images are taken to detect both steatosis and yolk lipid accumulation. […] Yolk lipid retention is considered positive when a red strong signal is observed in the yolk area (Figure 5F).
DMSO 1% treated larvae were used as the negative control group.

zebrafish larvae = assay: ZeGlobalTox neurotoxicity evaluation (locomotion, light/dark trial); assay type: in vivo, zebrafish (Danio rerio); settings: 120 hpf, drug from 96 hpf at NOEC (MPTP 100 µM, paracetamol 2600 µM)
Method: By 5 dpf, zebrafish larvae perform spontaneous swimming and their visual system is fully developed. Therefore, behavioural experiments were performed from this time point (Figure 4A). Deviations in total distance moved, in response to photo-visual stimulation, were analysed as a direct measurement of neurotoxicity. Thus, drugs increasing or decreasing total distance moved when compared to the DMSO-only group were considered neurotoxic. As the positive neurotoxic control we used MPTP, which has been identified as a neurotoxic drug in humans and zebrafish.
Immediately after heart video acquisition, larvae are washed with E3 medium to remove tricaine methanesulfonate from the solution. Fresh drug solution is added and the larvae are transferred individually in a volume of 150 µL to 96 well plates.
Neurotoxicity is analysed at 120 hpf by locomotion assessment using the EthoVision XT 11.5 software and the DanioVision device from Noldus Information Technologies, Wageningen, The Netherlands. This closed system consists of a camera placed above a chamber with circulating water and a temperature sensor set at 28 °C. The 96-well plates are placed in the chamber, which can then be illuminated with white light using the software. Larvae are then left for 20 min under these conditions and with the lights on to help their acclimation. Finally, larvae locomotion is measured during 50′ under the following light/dark conditions: 10′ darkness-10′ Light-10′ darkness-10′ Light-10′ darkness. Total distance moved (in mm) is acquired under this light/dark trial. Due to circadian rhythms, all locomotion assays were performed from 13:00 pm onwards to ensure steady activity of the zebrafish.
Neurotoxicity is assessed by comparing locomotion differences among the tested compounds (solved in DMSO) and the negative control group (DMSO 1%-only).

Structure (SMILES)	LC50 (in vivo) [µM]	Heart rate (beats per minute) compared to DMSO-only (zebrafish larvae heart)	Longest cardiac arrest compared to DMSO-only (zebrafish larvae heart)	Neurotoxicity (toxicity in humans) (humans)	Cardiotoxicity (toxicity in humans) (humans)	Hepatotoxicity (toxicity in humans) (humans)	96 hpf NOEC [1] [µM]	Percentage of larvae presenting steatosis (zebrafish larvae liver) [%]	96 hpf LOEC [1] [µM]	Motility (total distance moved) compared to DMSO (zebrafish larvae)	Percentage of larvae presenting yolk lipid retention (zebrafish larvae liver; 36 h drug incubation at NOEC (paracetamol 2600 µM), DMSO 22.22%) [%]	QTc interval compared to DMSO-only (zebrafish larvae heart)
COc1cc(N)c(Cl)cc1C(=O)NC1CCN(CCCOc2ccc(F)cc2)CC1OC (stereo not drawn) [Cisapride, cisapride]	> 1000	decreased the heart rate	Longer cardiac arrest	Safe	Toxic ^1,3	Safe						
NNC(=O)c1ccncc1 [Isoniazid, isoniazid]				Toxic ^1,2,3	Safe	Toxic ^1,2,3	1000.00	60				
CC[C@]1(O)C[C@H]2CN(CCc3c([nH]c4ccccc34)[C@@](C(=O)OC)(c3cc4c(cc3OC)N(C=O)[C@H]3[C@@](O)(C(=O)OC)[C@H](OC(C)=O)[C@]5(CC)C=CCN6CC[C@]43[C@@H]65)C2)C1 [Vincristine, vincristine]	31.6	decreased the heart rate	Longer cardiac arrest	Toxic ^1,2,3	Toxic ^1,2,3	Safe			100	increased motility		
CC(=O)O[C@@]12CO[C@@H]1C[C@H](O)[C@@]1(C)C(=O)[C@H](O)C3=C(C)[C@@H](OC(=O)[C@H](O)[C@@H](NC(=O)OC(C)(C)C)c4ccccc4)C[C@@](O)([C@@H](OC(=O)c4ccccc4)[C@H]21)C3(C)C [Docetaxel, docetaxel]		decreased the heart rate	Longer cardiac arrest	Toxic ^1,2,3	Toxic ^2,3	Toxic ^1,2,3			100.00	increased motility		
CN1CC=C(c2ccccc2)CC1 [MPTP, 1-methyl-4-phenyl-1,2,3,6-tetrahydropyridine]				Toxic [22, 30, 31]				50		Decreased motility		
C[C@]12CC[C@H](O)C[C@H]1CC[C@@H]1[C@@H]2C[C@@H](O)[C@]2(C)[C@@H](C3=CC(=O)OC3)CC[C@]12O [Digoxigenin, digoxigenin]					Toxic ^1		100.00	55	1000.00			
CN1CCN(CCCN2c3ccccc3Sc3ccc(C(F)(F)F)cc32)CC1 [Trifluoperazine HCL, trifluoperazine hydrochloride]	31.6	decreased the heart rate	Longer cardiac arrest	Toxic ^1,2,3	Toxic ^1,2,3	Toxic ^1,2,3	10	85	100	Decreased motility		
C[C@](N)(Cc1ccc(O)c(O)c1)C(=O)O [Methyldopa, methyldopa]				Toxic ^1,3	Safe	Toxic ^1,2,3	1000.00				50	
CNCC(O)c1ccc(O)c(O)c1.Cl (racemic) [(±)-Epinephrine HCL, (±)-epinephrine hydrochloride]				Toxic ^1,2,3	Toxic ^1,2,3	Safe	1000.00	80		increased motility		
CC(C)(C)NC(=O)[C@H]1CC[C@H]2[C@@H]3CC[C@H]4NC(=O)C=C[C@]4(C)[C@H]3CC[C@]12C [Finasteride, finasteride]	31.6			Safe	Safe	Safe		65	100.00			
CC(C)NCC(O)COc1cccc2[nH]ccc12 (stereo not drawn) [Pindolol, pindolol]	> 1000	decreased the heart rate	Longer cardiac arrest	Toxic ^2,3	Toxic ^1,2,3	Safe			1000	increased motility		QTc interval prolongation; also recorded: increased QTc
